Test results reported in patent US20220396569A1 (Carmot Therapeutics, Inc., priority 2021, published 2022).

These compounds were tested against T1, human GLP-1 receptor (Homo sapiens, UniProt P43220) (assay: GLP-1R cAMP Assay (HitHunter cAMP accumulation)). Conditions: cAMP accumulation, CHO cells stably overexpressing human GLP-1 receptor, 30 min treatment; read-out: EC50.
T1 construct: expressed in transfected cells
Type: cell-based
Outline: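 CHO cells stably expressing human GLP-1R, 10,000 cells/well in HBSS with 10 mM HEPES and 625 μM IBMX, were mixed with anti-cAMP antibody reagent. Compound was applied as a 20-point dose response in triplicate for 30 min. After lysis and overnight detection, luminescence was read and dose-response curves analysed.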

T1 sequence (P43220 24-463): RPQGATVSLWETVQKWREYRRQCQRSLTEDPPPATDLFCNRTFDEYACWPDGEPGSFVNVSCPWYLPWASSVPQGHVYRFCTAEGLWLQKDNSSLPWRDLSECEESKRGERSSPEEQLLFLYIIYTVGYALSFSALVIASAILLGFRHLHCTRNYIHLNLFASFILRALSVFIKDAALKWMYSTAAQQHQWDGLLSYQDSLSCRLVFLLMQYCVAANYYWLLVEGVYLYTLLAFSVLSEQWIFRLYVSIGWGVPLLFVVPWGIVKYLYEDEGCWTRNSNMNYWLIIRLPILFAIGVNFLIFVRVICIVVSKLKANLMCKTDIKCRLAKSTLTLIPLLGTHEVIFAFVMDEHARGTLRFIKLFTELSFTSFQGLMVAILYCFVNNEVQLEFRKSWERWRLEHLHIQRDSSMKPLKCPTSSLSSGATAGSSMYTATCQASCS

Structure (SMILES) | EC50 [µM]
N#Cc1ccc(OCc2cc([C@H]3CCN(Cc4nc5ccc(C(=O)O)cc5n4C[C@@H]4CCO4)C3)ccc2F)c(F)c1 [Compound 439, 2-{[(3R)-3-{3-[(4-cyano-2-fluorophenoxy)methyl]-4-fluorophenyl}pyrrolidin-1-yl]methyl}-1-{[(2S)-oxetan-2-yl]methyl}-1H-1,3-benzodiazole-6-carboxylic acid] | 0.05 to 0.5
O=C(O)c1ccc2nc(CN3CC=C(c4cc(COc5ccc(Cl)cc5F)ncc4F)C3)n(C[C@@H]3CCO3)c2c1 [Compound 440, 2-[(3-{2-[(4-chloro-2-fluorophenoxy)methyl]-5-fluoropyridin-4-yl}-2,5-dihydro-1H-pyrrol-1-yl)methyl]-1-{[(2S)-oxetan-2-yl]methyl}-1H-1,3-benzodiazole-6-carboxylic acid] | < 0.05
O=C(O)c1cc(F)c2nc(CN3CC[C@@H](c4cccc(COc5ccc(Cl)cc5F)n4)C3)n(C[C@@H]3CCO3)c2c1 [Compound 441, 2-{[(3R)-3-{6-[(4-chloro-2-fluorophenoxy)methyl]pyridin-2-yl}pyrrolidin-1-yl]methyl}-4-fluoro-1-{[(2S)-oxetan-2-yl]methyl}-1H-1,3-benzodiazole-6-carboxylic acid] | 0.05 to 0.5
O=C(O)c1cc(F)c2nc(CN3CC[C@H](c4cccc(COc5ccc(Cl)cc5F)n4)C3)n(C[C@@H]3CCO3)c2c1 [Compound 442, 2-{[(3S)-3-{6-[(4-chloro-2-fluorophenoxy)methyl]pyridin-2-yl}pyrrolidin-1-yl]methyl}-4-fluoro-1-{[(2S)-oxetan-2-yl]methyl}-1H-1,3-benzodiazole-6-carboxylic acid] | < 0.05
N#Cc1ccc(OCc2cc([C@@H]3CCN(Cc4nc5ccc(C(=O)O)cc5n4C[C@@H]4CCO4)C3)ccc2F)c(F)c1 [Compound 443, 2-{[(3S)-3-{3-[(4-cyano-2-fluorophenoxy)methyl]-4-fluorophenyl}pyrrolidin-1-yl]methyl}-1-{[(2S)-oxetan-2-yl]methyl}-1H-1,3-benzodiazole-6-carboxylic acid] | < 0.05
N#Cc1ccc(OCc2cccc([C@H]3CCN(Cc4nc5c(F)cc(C(=O)O)cc5n4C[C@@H]4CCO4)C3)c2)c(F)c1 [Compound 444, 2-{[(3R)-3-{3-[(4-cyano-2-fluorophenoxy)methyl]phenyl}pyrrolidin-1-yl]methyl}-4-fluoro-1-{[(2S)-oxetan-2-yl]methyl}-1H-1,3-benzodiazole-6-carboxylic acid] | > 0.5
N#Cc1ccc(OCc2cccc([C@@H]3CCN(Cc4nc5c(F)cc(C(=O)O)cc5n4C[C@@H]4CCO4)C3)c2)c(F)c1 [Compound 445, 2-{[(3S)-3-{3-[(4-cyano-2-fluorophenoxy)methyl]phenyl}pyrrolidin-1-yl]methyl}-4-fluoro-1-{[(2S)-oxetan-2-yl]methyl}-1H-1,3-benzodiazole-6-carboxylic acid] | < 0.05
O=C(O)c1ccc2nc(CN3CC[C@@H](c4ccc(F)c(COc5ccc(Cl)cc5F)c4)C3)n(C[C@@H]3CCO3)c2c1 [Compound 446, 2-{[(3S)-3-{3-[(4-chloro-2-fluorophenoxy)methyl]-4-fluorophenyl}pyrrolidin-1-yl]methyl}-1-{[(2S)-oxetan-2-yl]methyl}-1H-1,3-benzodiazole-6-carboxylic acid] | < 0.05
N#Cc1cc(F)ccc1OCc1cc([C@@H]2CCN(Cc3nc4ccc(C(=O)O)cc4n3C[C@@H]3CCO3)C2)ccc1F [Compound 447, 2-{[(3S)-3-{3-[(2-cyano-4-fluorophenoxy)methyl]-4-fluorophenyl}pyrrolidin-1-yl]methyl}-1-{[(2S)-oxetan-2-yl]methyl}-1H-1,3-benzodiazole-6-carboxylic acid] | < 0.05
O=C(O)c1ccc2nc(CN3CC[C@H](c4ccc(F)c(COc5ccc(Cl)cc5F)c4)C3)n(C[C@@H]3CCO3)c2c1 [Compound 448, 2-{[(3R)-3-{3-[(4-chloro-2-fluorophenoxy)methyl]-4-fluorophenyl}pyrrolidin-1-yl]methyl}-1-{[(2S)-oxetan-2-yl]methyl}-1H-1,3-benzodiazole-6-carboxylic acid] | 0.05 to 0.5
N#Cc1ccc(OCc2cc([C@@H]3CCN(Cc4nc5c(F)cc(C(=O)O)cc5n4C[C@@H]4CCO4)C3)ccc2F)c(F)c1 [Compound 450, 2-{[(3S)-3-{3-[(4-cyano-2-fluorophenoxy)methyl]-4-fluorophenyl}pyrrolidin-1-yl]methyl}-4-fluoro-1-{[(2S)-oxetan-2-yl]methyl}-1H-1,3-benzodiazole-6-carboxylic acid] | < 0.05
O=C(O)c1cc(F)c2nc(CN3CC=C(c4nc(COc5ccc(Cl)cc5Cl)ccc4F)C3)n(C[C@@H]3CCO3)c2c1 [Compound 451, 2-[(3-{6-[(2,4-dichlorophenoxy)methyl]-3-fluoropyridin-2-yl}-2,5-dihydro-1H-pyrrol-1-yl)methyl]-4-fluoro-1-{[(2S)-oxetan-2-yl]methyl}-1H-1,3-benzodiazole-6-carboxylic acid] | < 0.05
O=C(O)c1cc(F)c2nc(CN3CC=C(c4cc(COc5ccc(Cl)cc5F)ncc4F)C3)n(C[C@@H]3CCO3)c2c1 [Compound 452] | < 0.05
O=C(O)c1cc(F)c2nc(CN3CC[C@@H](c4ccc(F)c(COc5ccc(Cl)cc5F)n4)C3)n(C[C@@H]3CCO3)c2c1 [Compound 453, 2-{[(3R)-3-{6-[(4-chloro-2-fluorophenoxy)methyl]-5-fluoropyridin-2-yl}pyrrolidin-1-yl]methyl}-4-fluoro-1-{[(2S)-oxetan-2-yl]methyl}-1H-1,3-benzodiazole-6-carboxylic acid] | < 0.05
N#Cc1ccc(OCc2nc([C@@H]3CCN(Cc4nc5c(F)cc(C(=O)O)cc5n4C[C@@H]4CCO4)C3)ccc2F)c(F)c1 [Compound 454, 2-{[(3R)-3-{6-[(4-cyano-2-fluorophenoxy)methyl]-5-fluoropyridin-2-yl}pyrrolidin-1-yl]methyl}-4-fluoro-1-{[(2S)-oxetan-2-yl]methyl}-1H-1,3-benzodiazole-6-carboxylic acid] | < 0.05
N#Cc1ccc(OCc2nc([C@H]3CCN(Cc4nc5c(F)cc(C(=O)O)cc5n4C[C@@H]4CCO4)C3)ccc2F)c(F)c1 [Compound 455, 2-{[(3S)-3-{6-[(4-cyano-2-fluorophenoxy)methyl]-5-fluoropyridin-2-yl}pyrrolidin-1-yl]methyl}-4-fluoro-1-{[(2S)-oxetan-2-yl]methyl}-1H-1,3-benzodiazole-6-carboxylic acid] | 0.05 to 0.5
O=C(O)c1ccc2nc(CN3CCC(c4nc(COc5ccc(Cl)cc5F)ccc4F)C3)n(C[C@@H]3CCO3)c2c1 (stereo partly drawn) [Compound 456, 2-[(3-{6-[(4-chloro-2-fluorophenoxy)methyl]-3-fluoropyridin-2-yl}pyrrolidin-1-yl)methyl]-1-{[(2S)-oxetan-2-yl]methyl}-1H-1,3-benzodiazole-6-carboxylic acid] | < 0.05
O=C(O)c1cc(F)c2nc(CN3CCC(c4nc(COc5ccc(Cl)cc5F)ccc4F)C3)n(C[C@@H]3CCO3)c2c1 (stereo partly drawn) [Compound 457, 2-[(3-{6-[(4-chloro-2-fluorophenoxy)methyl]-3-fluoropyridin-2-yl}pyrrolidin-1-yl)methyl]-4-fluoro-1-{[(2S)-oxetan-2-yl]methyl}-1H-1,3-benzodiazole-6-carboxylic acid] | < 0.05
N#Cc1ccc(OCc2ccc(F)c(C3=CCN(Cc4nc5ccc(C(=O)O)cc5n4C[C@@H]4CCO4)C3)n2)c(Cl)c1 [Compound 458, 2-[(3-{6-[(2-chloro-4-cyanophenoxy)methyl]-3-fluoropyridin-2-yl}-2,5-dihydro-1H-pyrrol-1-yl)methyl]-1-{[(2S)-oxetan-2-yl]methyl}-1H-1,3-benzodiazole-6-carboxylic acid] | < 0.05
CCn1cncc1Cn1c(Cc2ccc(Oc3cccc(COc4ccc(C#N)cc4F)n3)cc2F)nc2ccc(C(=O)O)cc21 [Compound 461, 2-{[4-({6-[(4-cyano-2-fluorophenoxy)methyl]pyridin-2-yl}oxy)-2-fluorophenyl]methyl}-1-[(1-ethyl-1H-imidazol-5-yl)methyl]-1H-1,3-benzodiazole-6-carboxylic acid] | < 0.05
CCn1cncc1Cn1c(Cc2ccc(Oc3ccnc(COc4ccc(Cl)cc4F)c3)cc2F)nc2ccc(C(=O)O)cc21 [Compound 462, 2-{[4-({2-[(4-chloro-2-fluorophenoxy)methyl]pyridin-4-yl}oxy)-2-fluorophenyl]methyl}-1-[(1-ethyl-1H-imidazol-5-yl)methyl]-1H-1,3-benzodiazole-6-carboxylic acid] | < 0.05
CCn1cncc1Cn1c(Cc2ccc(Oc3cccc(COc4ccc(Cl)cc4F)n3)cc2F)nc2ccc(C(=O)O)cc21 [Compound 463, 2-{[4-({6-[(4-chloro-2-fluorophenoxy)methyl]pyridin-2-yl}oxy)-2-fluorophenyl]methyl}-1-[(1-ethyl-1H-imidazol-5-yl)methyl]-1H-1,3-benzodiazole-6-carboxylic acid] | < 0.05
O=C(O)c1ccc2nc(Cc3ccc(Oc4cccc(COc5ccc(Cl)cc5F)n4)cc3F)n(C[C@@H]3CCO3)c2c1 [Compound 464, 2-{[4-({6-[(4-chloro-2-fluorophenoxy)methyl]pyridin-2-yl}oxy)-2-fluorophenyl]methyl}-1-{[(2S)-oxetan-2-yl]methyl}-1H-1,3-benzodiazole-6-carboxylic acid] | < 0.05
N#Cc1ccc(OCc2nccc(Oc3ccc(Cc4nc5ccc(C(=O)O)cc5n4C[C@@H]4CCO4)c(F)c3)n2)c(F)c1 [Compound 465, 2-{[4-({2-[(4-cyano-2-fluorophenoxy)methyl]pyrimidin-4-yl}oxy)-2-fluorophenyl]methyl}-1-{[(2S)-oxetan-2-yl]methyl}-1H-1,3-benzodiazole-6-carboxylic acid] | < 0.05
O=C(O)c1ccc2nc(Cc3ccc(Oc4ccnc(COc5ccc(Cl)cc5F)c4)cc3F)n(C[C@@H]3CCO3)c2c1 [Compound 466, 2-{[4-({2-[(4-chloro-2-fluorophenoxy)methyl]pyridin-4-yl}oxy)-2-fluorophenyl]methyl}-1-{[(2S)-oxetan-2-yl]methyl}-1H-1,3-bcnzodiazole-6-carboxylic acid] | < 0.05
N#Cc1ccc(OCc2nccc(Oc3ccc(Cc4nc5c(F)cc(C(=O)O)cc5n4C[C@@H]4CCO4)c(F)c3)n2)c(F)c1 [Compound 467] | < 0.05
